# Experimental data reported in patent publication US20180244611A1, “Modulators of the Cystic Fibrosis Transmembrane Conductance Regulator Protein and Methods of Use” (AbbVie S.à.r.l., priority 2017, published 2018).
# Columns and labels:
# F508delCFTR [1] = molecular target: T1, F508delCFTR (Homo sapiens, UniProt P13569, DEL508-508); test: Cell Surface Expression-Horse Radish Peroxidase (CSE-HRP) assay, test compound without co-corrector; format: cell-based; conditions: for Emax: maximum at any tested concentration, normalized to positive control, without co-corrector; for EC50: test compound without co-corrector;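 for Emax: percent of on-plate 2 µM positive control corrector response over DMSO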
# T1 construct: expressed in transfected cells; host or cells: CFBE41o- human lung-derived epithelial cells (CFBE41o-F508delCFTR-HRP), doxycycline-inducible
# Method in brief: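 CFBE41o- cells expressing F508delCFTR with HRP in the fourth exofacial loop, induced with 0.5 μg/mL doxycycline for 72 h at 37° C, then exposed to compound alone for 18-24 h at 33° C, 8-point 3-fold series from 20 μM. Surface HRP read by luminol luminescence, normalized to positive corrector control versus DMSO; EC50 from variable-slope sigmoidal fit of three replicate plates.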
# F508delCFTR [2] = molecular target: T1, F508delCFTR; test: Cell Surface Expression-Horse Radish Peroxidase (CSE-HRP) assay, test compound with co-corrector; format: cell-based; conditions: with 2 μM co-corrector; for Maximum % activity (with co-corrector): maximum at any tested concentration, normalized to positive control;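 for Maximum % activity (with co-corrector): percent of 2 µM positive control corrector over DMSO; co-corrector is that same compound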
# Method in brief: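 CFBE41o- cells expressing F508delCFTR with HRP in the fourth exofacial loop, induced with 0.5 μg/mL doxycycline for 72 h, then treated 18-24 h at 33° C. with compound (8 points, top 20 μM, 3-fold) plus 2 μM co-corrector. Surface HRP read by luminol luminescence; activity normalised to positive control, EC50 from variable-slope sigmoidal fit.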
# T1 sequence (P13569 with tags, fused parts or gaps DEL508-508): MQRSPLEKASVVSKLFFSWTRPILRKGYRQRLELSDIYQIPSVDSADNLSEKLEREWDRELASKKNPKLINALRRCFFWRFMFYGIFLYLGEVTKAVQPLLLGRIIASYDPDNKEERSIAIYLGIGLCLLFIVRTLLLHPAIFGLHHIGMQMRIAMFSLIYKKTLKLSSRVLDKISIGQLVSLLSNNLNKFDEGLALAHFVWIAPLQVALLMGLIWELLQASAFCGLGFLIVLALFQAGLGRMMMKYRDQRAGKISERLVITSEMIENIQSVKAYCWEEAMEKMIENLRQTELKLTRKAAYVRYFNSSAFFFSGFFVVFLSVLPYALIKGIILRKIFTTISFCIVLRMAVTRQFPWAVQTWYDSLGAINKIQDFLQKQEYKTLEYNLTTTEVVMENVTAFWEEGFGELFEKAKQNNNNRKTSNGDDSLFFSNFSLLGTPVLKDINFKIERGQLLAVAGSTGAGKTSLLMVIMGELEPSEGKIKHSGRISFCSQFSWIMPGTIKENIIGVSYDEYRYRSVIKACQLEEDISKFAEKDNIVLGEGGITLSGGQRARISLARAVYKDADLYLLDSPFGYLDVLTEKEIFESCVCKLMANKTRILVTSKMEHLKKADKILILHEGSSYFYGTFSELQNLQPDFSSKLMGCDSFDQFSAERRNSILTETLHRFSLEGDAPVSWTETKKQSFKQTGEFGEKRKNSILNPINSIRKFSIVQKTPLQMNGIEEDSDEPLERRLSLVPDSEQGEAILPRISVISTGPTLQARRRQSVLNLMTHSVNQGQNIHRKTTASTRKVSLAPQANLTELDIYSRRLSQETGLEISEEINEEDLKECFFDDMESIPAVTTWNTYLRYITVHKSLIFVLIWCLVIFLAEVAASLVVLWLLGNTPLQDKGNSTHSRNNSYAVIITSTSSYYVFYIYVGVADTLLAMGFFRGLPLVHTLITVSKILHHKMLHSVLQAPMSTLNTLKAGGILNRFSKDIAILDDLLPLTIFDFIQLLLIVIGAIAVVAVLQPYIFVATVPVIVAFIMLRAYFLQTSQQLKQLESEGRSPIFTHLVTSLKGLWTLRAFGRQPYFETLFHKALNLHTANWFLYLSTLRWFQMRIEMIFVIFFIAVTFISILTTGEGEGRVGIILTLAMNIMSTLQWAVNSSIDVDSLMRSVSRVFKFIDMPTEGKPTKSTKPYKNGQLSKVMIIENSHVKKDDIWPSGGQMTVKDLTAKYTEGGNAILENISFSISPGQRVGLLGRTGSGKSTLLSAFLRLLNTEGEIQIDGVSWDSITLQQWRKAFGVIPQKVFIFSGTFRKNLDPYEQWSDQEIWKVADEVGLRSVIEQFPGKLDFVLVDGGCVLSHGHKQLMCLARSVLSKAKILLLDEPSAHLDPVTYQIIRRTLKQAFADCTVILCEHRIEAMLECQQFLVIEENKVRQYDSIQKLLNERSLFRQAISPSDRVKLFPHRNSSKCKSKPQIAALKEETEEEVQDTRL
Structure (SMILES),Emax (F508delCFTR [1]),EC50 (F508delCFTR [1]),Maximum % activity (with co-corrector) (F508delCFTR [2]),EC50 (F508delCFTR [2])
"COc1ccc(Cl)c2c1C(C(=O)NS(=O)(=O)c1cccc3ccccc13)CCC2 (centres unmarked) [Example I-70, 5-chloro-8-methoxy-N-(naphthalene-1-sulfonyl)-1,2,3,4-tetrahydronaphthalene-1-carboxamide]",≥ 150%,< 3 µM,+++ (≥350),< 3 µM
"COc1ccc(Cl)c2c1[C@H](C(=O)NS(=O)(=O)c1cccc3ccccc13)CC2 [Example I-72, (1R)-4-chloro-7-methoxy-N-(naphthalene-1-sulfonyl)-2,3-dihydro-1H-indene-1-carboxamide]",≥ 150%,3 to 10 µM,+++ (≥350),< 3 µM
"CCC1(C(=O)NS(=O)(=O)c2cccc3c2ccn3C)CCc2c(Cl)cccc21 (centres unmarked) [Example I-74, 4-chloro-1-ethyl-N-(1-methyl-1H-indole-4-sulfonyl)-2,3-dihydro-1H-indene-1-carboxamide]",≥ 150%,3 to 10 µM,+++ (≥350),< 3 µM
"COc1ccc(C2CCC2)c2c1C(C(=O)NS(=O)(=O)c1cccc3ccccc13)CC2 (centres unmarked) [Example I-76, 4-cyclobutyl-7-methoxy-N-(naphthalene-1-sulfonyl)-2,3-dihydro-1H-indene-1-carboxamide]",≥ 150%,3 to 10 µM,+++ (≥350),< 3 µM
"COc1ccc(Br)c2c1C(C(=O)NS(=O)(=O)c1cccc3nccn13)CC2 (centres unmarked) [Example I-78, 4-bromo-N-(imidazo[1,2-a]pyridine-5-sulfonyl)-7-methoxy-2,3-dihydro-1H-indene-1-carboxamide]",≥ 150%,3 to 10 µM,+++ (≥350),< 3 µM
"COc1ccc(C2CCC2)c2c1[C@H](C(=O)NS(=O)(=O)c1cccc3ccccc13)CC2 [Example I-81, (1R)-4-cyclobutyl-7-methoxy-N-(naphthalene-1-sulfonyl)-2,3-dihydro-1H-indene-1-carboxamide]",≥ 150%,< 3 µM,+++ (≥350),< 3 µM
"O=C(NS(=O)(=O)c1cccc2ccccc12)C1CCCc2cccc(C3CCC3)c21 (centres unmarked) [Example I-82, 8-cyclobutyl-N-(naphthalene-1-sulfonyl)-1,2,3,4-tetrahydronaphthalene-1-carboxamide]",≥ 150%,< 3 µM,+++ (≥350),< 3 µM
"CC1(C(=O)NS(=O)(=O)c2cccc3ccccc23)CCc2cccc(C3CCC3)c21 (centres unmarked) [Example I-83, 7-cyclobutyl-1-methyl-N-(naphthalene-1-sulfonyl)-2,3-dihydro-1H-indene-1-carboxamide]",≥ 150%,< 3 µM,+++ (≥350),< 3 µM
"COc1ccc(Br)c2c1CC[C@H]2C(=O)NS(=O)(=O)c1cccc2ccccc12 [Example I-84, (1R)-7-bromo-4-methoxy-N-(naphthalene-1-sulfonyl)-2,3-dihydro-1H-indene-1-carboxamide]",≥ 150%,3 to 10 µM,+++ (≥350),< 3 µM
"COc1ccc(Br)c2c1CC[C@@H]2C(=O)NS(=O)(=O)c1cccc2ccccc12 [Example I-85, (1S)-7-bromo-4-methoxy-N-(naphthalene-1-sulfonyl)-2,3-dihydro-1H-indene-1-carboxamide]",50 to 150%,3 to 10 µM,+++ (≥350),3 to 10 µM
"COc1ccc(OC)c2c1CC[C@@H]2C(=O)NS(=O)(=O)c1cccc2ccccc12 [Example I-89, (1S)-4,7-dimethoxy-N-(naphthalene-1-sulfonyl)-2,3-dihydro-1H-indene-1-carboxamide]",50 to 150%,3 to 10 µM,++ (≥150 and <350),3 to 10 µM
"COc1ccc(OC)c2c1CC[C@@H]2C(=O)NS(=O)(=O)c1cccc2ncccc12 [Example I-91, (1S)-4,7-dimethoxy-N-(quinoline-5-sulfonyl)-2,3-dihydro-1H-indene-1-carboxamide]",50 to 150%,3 to 10 µM,+++ (≥350),3 to 10 µM
"COc1ccc(OC)c2c1CC[C@H]2C(=O)NS(=O)(=O)c1cccc2ncccc12 [Example I-92, (1R)-4,7-dimethoxy-N-(quinoline-5-sulfonyl)-2,3-dihydro-1H-indene-1-carboxamide]",≥ 150%,3 to 10 µM,+++ (≥350),< 3 µM
"COc1ccc(C(F)(F)F)c2c1[C@@H](C(=O)NS(=O)(=O)c1cccc3ncccc13)CC2 [Example I-95, (1S)-7-methoxy-N-(quinoline-5-sulfonyl)-4-(trifluoromethyl)-2,3-dihydro-1H-indene-1-carboxamide]",≥ 150%,3 to 10 µM,+++ (≥350),< 3 µM
"COc1ccc(C(F)(F)F)c2c1[C@H](C(=O)NS(=O)(=O)c1cccc3ncccc13)CC2 [Example I-96, (1R)-7-methoxy-N-(quinoline-5-sulfonyl)-4-(trifluoromethyl)-2,3-dihydro-1H-indene-1-carboxamide]",≥ 150%,< 3 µM,+++ (≥350),< 3 µM

# Other lines, results leading:
Emax (F508delCFTR [1]),EC50 (F508delCFTR [1]),Maximum % activity (with co-corrector) (F508delCFTR [2]),EC50 (F508delCFTR [2]),Structure (SMILES)
50 to 150%,3 to 10 µM,++ (≥150 and <350),3 to 10 µM,"COc1ccc(Cl)c2c1[C@@H](C(=O)NS(=O)(=O)c1cccc3ccccc13)CC2 [Example I-71, (1S)-4-chloro-7-methoxy-N-(naphthalene-1-sulfonyl)-2,3-dihydro-1H-indene-1-carboxamide]"
≥ 150%,3 to 10 µM,+++ (≥350),< 3 µM,"COc1ccc(OC)c2c1CCCC2C(=O)NS(=O)(=O)c1cccc2ccccc12 (centres unmarked) [Example I-73, 5,8-dimethoxy-N-(naphthalene-1-sulfonyl)-1,2,3,4-tetrahydronaphthalene-1-carboxamide]"
≥ 150%,< 3 µM,+++ (≥350),< 3 µM,"COc1ccc(C)c2c1C(C(=O)NS(=O)(=O)c1cccc3ccccc13)CC2 (centres unmarked) [Example I-75, 7-methoxy-4-methyl-N-(naphthalene-1-sulfonyl)-2,3-dihydro-1H-indene-1-carboxamide]"
≥ 150%,3 to 10 µM,+++ (≥350),< 3 µM,"COc1ccc(C2CCC2)c2c1C(C(=O)NS(=O)(=O)c1cccc3ncccc13)CC2 (centres unmarked) [Example I-77, 4-cyclobutyl-7-methoxy-N-(quinoline-5-sulfonyl)-2,3-dihydro-1H-indene-1-carboxamide]"
≥ 150%,3 to 10 µM,+++ (≥350),< 3 µM,"COc1ccc(Br)c2c1C(C(=O)NS(=O)(=O)c1cccc3ccccc13)C2 (centres unmarked) [Example I-79, 2-bromo-5-methoxy-N-(naphthalene-1-sulfonyl)bicyclo[4.2.0]octa-1,3,5-triene-7-carboxamide]"
50 to 150%,3 to 10 µM,+++ (≥350),3 to 10 µM,"COc1ccc(C2CCC2)c2c1[C@@H](C(=O)NS(=O)(=O)c1cccc3ccccc13)CC2 [Example I-80, (1S)-4-cyclobutyl-7-methoxy-N-(naphthalene-1-sulfonyl)-2,3-dihydro-1H-indene-1-carboxamide]"
≥ 150%,< 3 µM,+++ (≥350),< 3 µM,"COc1ccc(C2CC2)c2c1C(C(=O)NS(=O)(=O)c1cccc3ccccc13)CCC2 (centres unmarked) [Example I-88, 5-cyclopropyl-8-methoxy-N-(naphthalene-1-sulfonyl)-1,2,3,4-tetrahydronaphthalene-1-carboxamide]"
≥ 150%,3 to 10 µM,+++ (≥350),3 to 10 µM,"COc1ccc(OC)c2c1CC[C@H]2C(=O)NS(=O)(=O)c1cccc2ccccc12 [Example I-90, (1R)-4,7-dimethoxy-N-(naphthalene-1-sulfonyl)-2,3-dihydro-1H-indene-1-carboxamide]"
≥ 150%,3 to 10 µM,+++ (≥350),3 to 10 µM,"COc1ccc(C(F)(F)F)c2c1[C@@H](C(=O)NS(=O)(=O)c1cccc3ccccc13)CC2 [Example I-93, (1S)-7-methoxy-N-(naphthalene-1-sulfonyl)-4-(trifluoromethyl)-2,3-dihydro-1H-indene-1-carboxamide]"
≥ 150%,< 3 µM,+++ (≥350),< 3 µM,"COc1ccc(C(F)(F)F)c2c1[C@H](C(=O)NS(=O)(=O)c1cccc3ccccc13)CC2 [Example I-94, (1R)-7-methoxy-N-(naphthalene-1-sulfonyl)-4-(trifluoromethyl)-2,3-dihydro-1H-indene-1-carboxamide]"
≥ 150%,< 3 µM,+++ (≥350),< 3 µM,"CCC1(C(=O)NS(=O)(=O)c2cccc3cnn(C)c23)CCc2c(Cl)cccc21 (centres unmarked) [Example I-97, 4-chloro-1-ethyl-N-(1-methyl-1H-indazole-7-sulfonyl)-2,3-dihydro-1H-indene-1-carboxamide]"
